Converted amounts (≈) assume the structure as drawn. “And” between values parts separate entries of the source, which are not always exact repeats. Identical values can stand only once.
Key:
Assay in all cases: ≥ marks a high value that may be exact or a test limit, other limits are often not marked, values filed in µg/mL are converted to µM
Listeria monocytogenes = tested on: Listeria monocytogenes
[1] = tested on: Salmonella enterica subsp. enterica serovar Enteritidis 706 RIVM
[2] = tested on: Pseudomonas aeruginosa RP73
[3] = tested on: Escherichia coli ATCC 35218
[4] = tested on: Salmonella enterica subsp. enterica serovar Typhimurium ATCC 14028
[5] = tested on: Staphylococcus aureus WKZ2
[6] = tested on: Enterococcus faecalis ATCC 29212
[7] = tested on: Escherichia coli ATCC 25922
[8] = tested on: Acinetobacter baumannii 7226/16
[9] = tested on: Staphylococcus aureus SG511
Escherichia coli ML-35p = tested on: Escherichia coli ML-35p
[10] = tested on: Klebsiella pneumoniae ESBL 344/17
[11] = tested on: Staphylococcus aureus 1399/17
[12] = tested on: Escherichia coli ESBL 521/17
[13] = tested on: Pseudomonas aeruginosa 522/17
[14] = tested on: Staphylococcus aureus ATCC 33591
Escherichia coli TOP 10 = tested on: Escherichia coli TOP 10
[15] = tested on: Enterococcus faecalis NCTC 12203
Escherichia coli = tested on: Escherichia coli
[16] = tested on: Pseudomonas aeruginosa H103
[17] = tested on: Pseudomonas aeruginosa 919
[18] = tested on: Pseudomonas aeruginosa 910
Escherichia coli UB1005 = tested on: Escherichia coli UB1005
[19] = tested on: Mycobacterium tuberculosis H37Rv
Staphylococcus aureus MR = tested on: Staphylococcus aureus MR
Candida albicans = tested on: Candida albicans
[20] = tested on: Pseudomonas aeruginosa 253
[21] = tested on: Staphylococcus aureus ATCC 25923
[22] = tested on: Staphylococcus aureus ATCC 29213
[23] = tested on: Staphylococcus epidermidis
[24] = tested on: Salmonella enterica serovar Typhimurium
[25] = tested on: Pseudomonas aeruginosa PAO1

CC[C@H](C)[C@H](NC(=O)[C@@H]1CCCN1)C(=O)N[C@@H](CCSC)C(=O)N[C@@H](Cc1ccc(O)cc1)C(=O)N[C@@H](CCCCN)C(=O)N[C@H](C(=O)N1CCC[C@H]1C(=O)N[C@@H](CC(C)C)C(=O)N[C@H](C(=O)N[C@@H](CCCN=C(N)N)C(=O)N[C@@H](CCCCN)C(=O)N[C@@H](CCCCN)C(=O)N[C@@H](CO)C(=O)N[C@@H](CC(C)C)C(=O)N[C@@H](CCCN=C(N)N)C(=O)N[C@@H](CCCN=C(N)N)C(=O)N[C@H](C(=O)N[C@@H](CC(C)C)C(=O)N[C@@H](CO)C(=O)N[C@@H](CCC(=O)O)C(=O)N[C@@H](CCCN=C(N)N)C(=O)NCC(=O)N[C@@H](CC(C)C)C(=O)N[C@@H](CC(C)C)C(=O)N[C@@H](CCCCN)C(=O)N[C@@H](CC(=O)O)C(=O)O)[C@@H](C)O)[C@@H](C)CC)C(C)C [PIMYKVPLIRKKSLRRTLSERGLLKD]
MIC (Listeria monocytogenes): ≥ 50 µM
MIC [1]: ≥ 50 µM
MIC [2]: 12.5 µM (≈ 38.9 µg/mL)
MIC [3]: 25 µM (≈ 77.8 µg/mL)
MIC [4]: > 12.5 µM
MIC [5]: 25 µM (≈ 77.8 µg/mL)
MIC [6]: 50 µM (≈ 156 µg/mL)
MIC [7]: 25 µM (≈ 77.8 µg/mL)

CC[C@H](C)[C@H](NC(=O)[C@H](CCCN=C(N)N)NC(=O)[C@@H](NC(=O)[C@@H]1CCCN1C(=O)[C@@H]1CCCN1C(=O)[C@H](CCCN=C(N)N)NC(=O)[C@H](CCCN=C(N)N)NC(=O)[C@H](Cc1ccccc1)NC(=O)[C@@H]1CCCN1C(=O)[C@H](CC(C)C)NC(=O)[C@H](CCCN=C(N)N)NC(=O)[C@H](Cc1ccccc1)NC(=O)[C@@H](N)CCCN=C(N)N)[C@@H](C)CC)C(=O)N[C@@H](Cc1cnc[nH]1)C(N)=O [RFRLPFRRPPIRIH]
MIC [8]: 16 µM (≈ 29.8 µg/mL)
MIC [9]: 2 µM (≈ 3.72 µg/mL)
MIC (Escherichia coli ML-35p): 8 µM (≈ 14.9 µg/mL)
MIC [10]: 16 µM (≈ 29.8 µg/mL)
MIC [11]: ≥ 128 µM
MIC [12]: 16 µM (≈ 29.8 µg/mL)
MIC [13]: ≥ 64 µM
MIC [14]: 16 µM (≈ 29.8 µg/mL)

CC[C@H](C)[C@H](NC(=O)[C@H](CCCCN)NC(=O)[C@H](CO)NC(=O)[C@@H](NC(=O)[C@@H](NC(=O)[C@H](CC(N)=O)NC(=O)[C@H](CCCCN)NC(=O)[C@H](Cc1ccccc1)NC(=O)[C@H](C)NC(=O)[C@@H]1CCCN1C(=O)[C@H](CC(C)C)NC(=O)[C@@H](N)Cc1ccccc1)C(C)C)[C@@H](C)CC)C(=O)N[C@@H](CC(C)C)C(=O)N[C@@H](CCCCN)C(=O)N[C@@H](C)C(=O)N[C@@H](CC(C)C)C(=O)N[C@@H](CCCCN)C(=O)N[C@@H](CCCCN)C(=O)N[C@@H](CCCCN)C(=O)N[C@H](C(N)=O)C(C)C [FLPAFKNVISKILKALKKKV]
MIC (Escherichia coli TOP 10): 5.47 µM (≈ 12.5 µg/mL)

CC[C@H](C)[C@H](NC(=O)[C@H](CCCN=C(N)N)NC(=O)[C@H](Cc1c[nH]c2ccccc12)NC(=O)[C@H](CCCN=C(N)N)NC(=O)[C@@H](N)CCCN=C(N)N)C(=O)N[C@H](C(=O)N[C@H](C(=O)N[C@H](C(=O)N[C@@H](CCCN=C(N)N)C(=O)N[C@H](C(=O)N[C@@H](CCCN=C(N)N)C(=O)N[C@@H](CCCN=C(N)N)C(=O)O)C(C)C)[C@@H](C)CC)C(C)C)C(C)C [RRWRIVVIRVRR]
MIC [15]: 1.2 µM (≈ 2 µg/mL)
MIC (Escherichia coli): 1.2 µM (≈ 2 µg/mL)
MIC [16]: 1.2 µM (≈ 2 µg/mL)
MIC [17]: 16 µM (≈ 26.6 µg/mL)
MIC [18]: 16 µM (≈ 26.6 µg/mL)
MIC [6]: 2.4 µM (≈ 4 µg/mL)
MIC (Escherichia coli UB1005): 0.601 µM (≈ 1 µg/mL)
MIC [19]: 1.92 µM (≈ 3.2 µg/mL)
MIC (Staphylococcus aureus MR): 1.2 µM (≈ 2 µg/mL)
MIC (Candida albicans): 2.4 µM (≈ 4 µg/mL)
MIC [7]: 2 µM (≈ 3.33 µg/mL)
MIC [20]: 8 µM (≈ 13.3 µg/mL)
MIC [21]: 4 µM (≈ 6.66 µg/mL)
MIC [22]: 1.2 µM (≈ 2 µg/mL)
MIC [23]: 0.12 µM and 0.3 µM
MIC [24]: 2.4 µM (≈ 4 µg/mL)
MIC [25]: 8 µM (≈ 13.3 µg/mL)

Reference: DBAASP
